Reference: ChEMBL document CHEMBL1909046, “DrugMatrix in vitro pharmacology data”
Where a SMILES comes first, the peptide text is derived from it. Bridges are numbered along the chain shown (N, C = ends). [ ]: non-standard residue; d: D form. The star is where a group is joined. Threoninol(2S,3R) = C[C@@H](O)[C@H](CO)N*

Columns and labels:
[1] = biological target: D(1A) dopamine receptor (Homo sapiens, UniProt P21728); experiment: DRUGMATRIX: Dopamine D1 radioligand binding (ligand: [3H] SCH-23390); type: cell membranes, Membrane; settings: cho; Not Active = under 50% inhibition at 10 µM
[2] = biological target: Cytochrome P450 2E1 (Homo sapiens, UniProt P05181); settings: bti-tn-5b1-4; note: in other assays of this panel Not Active means under 50% inhibition at 10 µM
[3] = DRUGMATRIX: Glutamate, Kainate radioligand binding (ligand: [3H] Kainic acid); type: cell membranes, Rattus norvegicus, Wistar, Brain, Membrane; settings: Not Active = under 50% inhibition at 10 µM
[4] = biological target: Mitogen-activated protein kinase 14 (Homo sapiens, UniProt Q16539); parameters: species or system Escherichia coli;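 note: inhibition of p38alpha enzyme activity in a biochemical kinase assay, with myelin basic protein serving as substrate; in other assays of this panel Not Active means under 50% inhibition at 10 µM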
[5] = biological target: T1, Thromboxane-A synthase (Homo sapiens, UniProt P24557); experiment: biochemical; type: tissue-based, Platelet; settings: platelet;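 note: enzyme inhibition assay with PGH2 supplied as substrate; in other assays of this panel Not Active means under 50% inhibition at 10 µM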
T1 sequence (P24557 whole entry): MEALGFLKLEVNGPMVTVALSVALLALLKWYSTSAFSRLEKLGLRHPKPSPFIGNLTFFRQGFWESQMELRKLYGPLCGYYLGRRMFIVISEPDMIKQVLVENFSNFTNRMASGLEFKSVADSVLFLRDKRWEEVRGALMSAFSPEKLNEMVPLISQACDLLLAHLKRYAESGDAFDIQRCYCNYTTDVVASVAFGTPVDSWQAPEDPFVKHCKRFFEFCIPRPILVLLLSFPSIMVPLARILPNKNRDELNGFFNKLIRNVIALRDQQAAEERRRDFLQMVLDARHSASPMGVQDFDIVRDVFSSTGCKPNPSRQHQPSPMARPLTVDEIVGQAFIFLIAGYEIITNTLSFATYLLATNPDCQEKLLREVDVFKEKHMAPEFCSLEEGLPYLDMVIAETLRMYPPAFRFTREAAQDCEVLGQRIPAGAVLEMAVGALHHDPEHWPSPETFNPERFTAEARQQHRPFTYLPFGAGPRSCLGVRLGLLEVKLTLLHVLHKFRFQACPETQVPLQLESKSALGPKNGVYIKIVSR

[6] = biological target: T2, Cathepsin G (Homo sapiens, UniProt P08311); type: tissue-based; settings: neutrophil;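 note: inhibition of Cathepsin G enzyme activity, tested on an AMC-conjugated peptide substrate; in other assays of this panel Not Active means under 50% inhibition at 10 µM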
T2 sequence (P08311 whole entry): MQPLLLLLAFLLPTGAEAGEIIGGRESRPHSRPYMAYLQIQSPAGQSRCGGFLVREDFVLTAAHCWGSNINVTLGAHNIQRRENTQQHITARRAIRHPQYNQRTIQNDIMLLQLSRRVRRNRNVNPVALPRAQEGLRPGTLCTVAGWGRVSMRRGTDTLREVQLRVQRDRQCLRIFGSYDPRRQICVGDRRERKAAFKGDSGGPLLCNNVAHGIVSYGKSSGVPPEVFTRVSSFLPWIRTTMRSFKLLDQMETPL

[7] = DRUGMATRIX: beta-Lactamase enzyme inhibition (substrate: Nitrocefin); parameters: species or system Bacillus cereus; settings: Not Active = under 50% inhibition at 10 µM
[8] = DRUGMATRIX: Platelet-Derived Growth Factor (PDGF) radioligand binding (ligand: [125I] PDGF); type: cell-based; settings: nih3t3; Not Active = under 50% inhibition at 10 µM
[9] = biological target: Insulin receptor (Rattus norvegicus, UniProt P15127); type: cell membranes, Wistar, Liver, Membrane; note: in other assays of this panel Not Active means under 50% inhibition at 10 µM
Sequence of Insulin receptor (P15127 27-759 limits assumed): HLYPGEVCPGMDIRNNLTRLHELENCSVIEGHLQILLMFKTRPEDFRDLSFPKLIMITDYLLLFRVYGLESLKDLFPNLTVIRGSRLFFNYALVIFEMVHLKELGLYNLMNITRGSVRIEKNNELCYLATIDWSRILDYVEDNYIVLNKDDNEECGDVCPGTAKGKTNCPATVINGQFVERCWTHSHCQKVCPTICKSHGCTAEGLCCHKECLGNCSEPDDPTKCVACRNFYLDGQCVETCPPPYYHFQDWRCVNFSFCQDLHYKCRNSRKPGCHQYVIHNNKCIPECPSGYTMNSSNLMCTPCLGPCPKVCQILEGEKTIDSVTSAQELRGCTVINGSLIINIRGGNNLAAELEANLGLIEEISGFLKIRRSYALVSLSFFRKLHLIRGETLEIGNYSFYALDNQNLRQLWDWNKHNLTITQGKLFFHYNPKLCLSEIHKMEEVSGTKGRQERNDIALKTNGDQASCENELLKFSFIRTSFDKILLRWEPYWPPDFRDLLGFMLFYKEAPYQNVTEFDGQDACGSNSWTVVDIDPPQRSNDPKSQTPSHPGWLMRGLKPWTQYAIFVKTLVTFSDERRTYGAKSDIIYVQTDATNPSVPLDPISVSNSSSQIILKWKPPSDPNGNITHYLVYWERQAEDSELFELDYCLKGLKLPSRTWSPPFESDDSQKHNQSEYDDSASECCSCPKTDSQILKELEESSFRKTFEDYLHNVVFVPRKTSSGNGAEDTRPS
Sequence of Insulin receptor (P15127 764-1383 limits assumed): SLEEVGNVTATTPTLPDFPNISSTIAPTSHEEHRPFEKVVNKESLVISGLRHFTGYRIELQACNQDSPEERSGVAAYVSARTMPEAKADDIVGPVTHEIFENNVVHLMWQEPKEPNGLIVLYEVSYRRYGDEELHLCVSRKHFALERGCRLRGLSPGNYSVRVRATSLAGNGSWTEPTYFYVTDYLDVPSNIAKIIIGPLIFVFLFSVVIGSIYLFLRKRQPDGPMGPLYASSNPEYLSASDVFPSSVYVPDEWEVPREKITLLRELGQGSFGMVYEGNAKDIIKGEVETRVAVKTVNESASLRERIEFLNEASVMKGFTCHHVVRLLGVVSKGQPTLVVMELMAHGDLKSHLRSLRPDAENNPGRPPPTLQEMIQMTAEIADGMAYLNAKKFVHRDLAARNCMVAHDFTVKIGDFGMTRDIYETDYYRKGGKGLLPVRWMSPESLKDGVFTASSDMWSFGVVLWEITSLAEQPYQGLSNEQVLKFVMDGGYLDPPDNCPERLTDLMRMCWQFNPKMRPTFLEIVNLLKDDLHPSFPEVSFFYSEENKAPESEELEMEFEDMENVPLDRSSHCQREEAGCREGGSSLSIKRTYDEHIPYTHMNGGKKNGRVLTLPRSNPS

Sequence of D(1A) dopamine receptor (P21728 whole entry): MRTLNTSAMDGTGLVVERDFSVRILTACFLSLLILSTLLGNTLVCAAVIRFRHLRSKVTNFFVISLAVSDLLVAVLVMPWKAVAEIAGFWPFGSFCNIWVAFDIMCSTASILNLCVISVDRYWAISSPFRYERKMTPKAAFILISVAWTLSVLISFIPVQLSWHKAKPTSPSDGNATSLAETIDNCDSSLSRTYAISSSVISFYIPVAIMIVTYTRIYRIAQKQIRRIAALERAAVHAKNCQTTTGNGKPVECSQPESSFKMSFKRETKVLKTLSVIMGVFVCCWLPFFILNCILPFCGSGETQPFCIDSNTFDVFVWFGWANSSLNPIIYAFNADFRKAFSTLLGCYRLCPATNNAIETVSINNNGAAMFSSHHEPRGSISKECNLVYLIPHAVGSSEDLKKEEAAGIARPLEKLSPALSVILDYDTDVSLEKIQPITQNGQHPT
Sequence of Cytochrome P450 2E1 (P05181 whole entry): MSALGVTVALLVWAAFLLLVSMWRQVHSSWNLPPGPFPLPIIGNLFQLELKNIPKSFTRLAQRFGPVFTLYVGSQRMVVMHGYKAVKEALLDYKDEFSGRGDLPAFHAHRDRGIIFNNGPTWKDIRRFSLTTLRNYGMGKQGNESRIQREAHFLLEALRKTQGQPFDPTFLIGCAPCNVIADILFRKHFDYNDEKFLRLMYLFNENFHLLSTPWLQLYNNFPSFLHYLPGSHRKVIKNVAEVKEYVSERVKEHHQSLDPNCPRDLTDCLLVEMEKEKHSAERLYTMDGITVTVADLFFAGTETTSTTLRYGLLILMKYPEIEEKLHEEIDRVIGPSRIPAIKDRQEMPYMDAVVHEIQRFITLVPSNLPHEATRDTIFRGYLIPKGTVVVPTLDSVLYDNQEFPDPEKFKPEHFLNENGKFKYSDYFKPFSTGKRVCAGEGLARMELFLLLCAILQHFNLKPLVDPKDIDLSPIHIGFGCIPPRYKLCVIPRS
Sequence of Mitogen-activated protein kinase 14 (Q16539 whole entry): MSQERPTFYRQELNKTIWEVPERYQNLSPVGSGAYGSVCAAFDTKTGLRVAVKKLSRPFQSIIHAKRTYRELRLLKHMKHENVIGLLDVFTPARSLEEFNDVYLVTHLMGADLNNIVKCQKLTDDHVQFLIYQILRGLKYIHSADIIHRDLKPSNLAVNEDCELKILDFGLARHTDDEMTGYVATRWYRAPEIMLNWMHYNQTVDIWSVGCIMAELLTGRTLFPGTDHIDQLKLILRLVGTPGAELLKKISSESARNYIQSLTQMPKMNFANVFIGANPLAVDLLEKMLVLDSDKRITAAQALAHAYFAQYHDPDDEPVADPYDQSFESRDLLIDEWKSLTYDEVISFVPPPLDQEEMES

C[C@H]1O[C@@H](O[C@H]2[C@@H](O)C[C@H](O[C@H]3[C@@H](O)C[C@H](O[C@H]4CC[C@@]5(C)[C@H](CC[C@@H]6[C@@H]5CC[C@]5(C)[C@@H](C7=CC(=O)OC7)CC[C@]65O)C4)O[C@@H]3C)O[C@@H]2C)C[C@H](O)[C@@H]1O [DIGITOXIN]
Not Active: IC50 [1] | IC50 [2] | Ki [2] | IC50 [3] | Ki [3] | IC50 [4] | IC50 [5] | IC50 [6] | IC50 [7] | Ki [7] | IC50 [8] | Ki [8] | IC50 [9]

C[C@]12CC[C@@H]3c4ccc(O)cc4CC[C@H]3[C@@H]1CC[C@@H]2O [ESTRADIOL]
Not Active: IC50 [1] | IC50 [2] | Ki [2] | IC50 [3] | Ki [3] | IC50 [4] | IC50 [5] | IC50 [6] | IC50 [7] | Ki [7] | IC50 [8] | Ki [8] | IC50 [9]

CCOC(=O)C1=C(C)NC(C)=C(C(=O)OC)C1c1cccc([N+](=O)[O-])c1 (centres undefined) [NITRENDIPINE]
Not Active: IC50 [1] | IC50 [2] | Ki [2] | IC50 [3] | Ki [3] | IC50 [4] | IC50 [5] | IC50 [6] | IC50 [7] | Ki [7] | IC50 [8] | Ki [8] | IC50 [9]

CC1=C(C(=O)O)N2C(=O)[C@@H](NC(=O)[C@H](N)c3ccccc3)[C@H]2SC1 [CEPHALEXIN ANHYDROUS]
Not Active: IC50 [1] | IC50 [2] | Ki [2] | IC50 [3] | Ki [3] | IC50 [4] | IC50 [5] | IC50 [6] | IC50 [7] | Ki [7] | IC50 [8] | Ki [8] | IC50 [9]

CN(C)/N=N/c1[nH]cnc1C(N)=O [DACARBAZINE]
Not Active: IC50 [1] | IC50 [2] | Ki [2] | IC50 [3] | Ki [3] | IC50 [4] | IC50 [5] | IC50 [6] | IC50 [7] | Ki [7] | IC50 [8] | Ki [8] | IC50 [9]

COc1ccc2c(c1)[C@]13CCCC[C@@H]1[C@H](C2)N(C)CC3 [DEXTROMETHORPHAN]
Not Active: IC50 [1] | IC50 [2] | Ki [2] | IC50 [3] | Ki [3] | IC50 [4] | IC50 [5] | IC50 [6] | IC50 [7] | Ki [7] | IC50 [8] | Ki [8] | IC50 [9]

C=C1CC[C@H](O)C/C1=C/C=C1\CCC[C@]2(C)[C@@H]([C@H](C)CCCC(C)C)CC[C@@H]12 [CHOLECALCIFEROL]
Not Active: IC50 [1] | IC50 [2] | Ki [2] | IC50 [3] | Ki [3] | IC50 [4] | IC50 [5] | IC50 [6] | IC50 [7] | Ki [7] | IC50 [8] | Ki [8] | IC50 [9]

COc1cc2c(c3oc(=O)c4c(c13)CCC4=O)[C@@H]1C=CO[C@@H]1O2 [AFLATOXIN]
Not Active: IC50 [1] | Ki [1] | IC50 [2] | Ki [2] | IC50 [3] | Ki [3] | IC50 [4] | Ki [4] | IC50 [5] | Ki [5] | IC50 [6] | Ki [6] | IC50 [7] | Ki [7] | IC50 [8] | Ki [8] | IC50 [9] | Ki [9]

CC(C)Cc1ccc(C(C)C(=O)O)cc1 (centres undefined) [IBUPROFEN]
Not Active: IC50 [1] | IC50 [2] | Ki [2] | IC50 [3] | Ki [3] | IC50 [4] | IC50 [5] | IC50 [6] | IC50 [7] | Ki [7] | IC50 [8] | Ki [8] | IC50 [9]

CC(C)(C(=O)c1cccnc1)c1cccnc1 [METYRAPONE]
Not Active: IC50 [1] | IC50 [2] | Ki [2] | IC50 [3] | Ki [3] | IC50 [4] | IC50 [5] | IC50 [6] | IC50 [7] | Ki [7] | IC50 [8] | Ki [8] | IC50 [9]

Cc1ncc([N+](=O)[O-])n1CCO [METRONIDAZOLE]
Not Active: IC50 [1] | IC50 [2] | Ki [2] | IC50 [3] | Ki [3] | IC50 [4] | IC50 [5] | IC50 [6] | IC50 [7] | Ki [7] | IC50 [8] | Ki [8] | IC50 [9]

C[C@@H](O)[C@H](CO)NC(=O)[C@@H]1CSSC[C@H](NC(=O)[C@H](N)Cc2ccccc2)C(=O)N[C@@H](Cc2ccccc2)C(=O)N[C@H](Cc2c[nH]c3ccccc23)C(=O)N[C@@H](CCCCN)C(=O)N[C@@H]([C@@H](C)O)C(=O)N1 (H-[dF]CF[dW]KTC-{Threoninol(2S,3R)}; disulfide 2-7)
Not Active: IC50 [1] | IC50 [2] | Ki [2] | IC50 [3] | Ki [3] | IC50 [4] | IC50 [5] | IC50 [6] | IC50 [7] | Ki [7] | IC50 [8] | Ki [8] | IC50 [9]

COc1ccc2[nH]c([S+]([O-])Cc3ncc(C)c(OC)c3C)nc2c1 (centres undefined) [OMEPRAZOLE]
Not Active: IC50 [1] | IC50 [2] | Ki [2] | IC50 [3] | Ki [3] | IC50 [4] | IC50 [5] | IC50 [6] | IC50 [7] | Ki [7] | IC50 [8] | Ki [8] | IC50 [9]
